The source of these data is patent publication US20070249729A1, “Method of Treating Elevated Plasma Homocysteine Levels in Esrd Patients” (priority 2003, published 2007).

The subject of series [1] is total plasma Hcy and cysteine. Briefly: In vivo pilot study, 3 ESRD hemodialysis patients, single iv Mesna: intra-dialytic plasma tHcy and cysteine. More on the design: species or system human. The text has this:
3 vitamin supplemented ([…], Landmark Medical Systems Inc. Unionville, Ontario) maintenance hemodialysis patients (2 males, 1 female) were recruited from the dialysis unit at London Health Sciences Centre-University Campus. Inclusion criteria were any vitamin supplemented patients on thrice weekly hemodialysis for at least 90 days who were willing to sign a letter of informed consent. Patients were excluded from the study if they had serum albumin≦30 g/L. The study protocol was approved by the human subject research ethics board at the University of Western Ontario. Patients were dialyzed with Fresenius Optiflux hollow fiber dialyzers (Fresenius AG, Bad Homburg, Germany). […] On day 5 (corresponding to the third dialysis session) blood samples were also drawn at various times throughout the dialysis treatment (0.5, 1.0, 2.0 and 3.0 hours) to determine baseline kinetic data. Undiluted ultrafiltrate was obtained from 2 patients by stopping the dialysate flow while maintaining the patient on ultrafiltration. Once 200 ml of dialysate had been displaced from the dialyzer, an undiluted ultrafiltrate sample was drawn from a port specially installed for the study. On the treatment day (a mid-week dialysis session corresponding to day 7 of the study), a single 5 mg/kg dose of Mesna was infused directly into the venous return on the dialysis machine over 5 minutes. […] Undiluted ultrafiltrate was also collected from 2 of the patients as described above. Pre- and post-dialysis blood samples were also drawn on each of the 3 subsequent dialysis treatments (corresponding to days 9, 12 and 14) to determine the duration of Mesna's action and how long it remains in the blood. […] Plasma and ultrafiltrate were stored at -20° C. until analysis. […] Results are shown as mean +/-SD. Intra-dialytic changes in tHcy and cysteine concentrations were analyzed by a paired students t-test.

A short description of series [2]: Intra-dialytic Mesna kinetics in 3 ESRD hemodialysis patients. It counts as in vivo, human. The protocol:
(§1) To assess baseline total plasma Hcy concentrations, 5 ml blood samples (EDTA) were drawn pre- and post-dialysis for all 7 dialysis sessions during the 14 day study period. On day 5 (corresponding to the third dialysis session) blood samples were also drawn at various times throughout the dialysis treatment (0.5, 1.0, 2.0 and 3.0 hours) to determine baseline kinetic data. Undiluted ultrafiltrate was obtained from 2 patients by stopping the dialysate flow while maintaining the patient on ultrafiltration. Once 200 ml of dialysate had been displaced from the dialyzer, an undiluted ultrafiltrate sample was drawn from a port specially installed for the study. On the treatment day (a mid-week dialysis session corresponding to day 7 of the study), a single 5 mg/kg dose of Mesna was infused directly into the venous return on the dialysis machine over 5 minutes. Blood samples were drawn pre-dialysis, 4 minutes after Mesna administration, 0.5, 1.0, 2.0, 3.0 hours and post-dialysis. Undiluted ultrafiltrate was also collected from 2 of the patients as described above. Pre- and post-dialysis blood samples were also drawn on each of the 3 subsequent dialysis treatments (corresponding to days 9, 12 and 14) to determine the duration of Mesna's action and how long it remains in the blood. All blood samples were immediately placed on ice and centrifuged within 30 minutes at 1500×g for 10 minutes. Plasma and ultrafiltrate were stored at −20° C. until analysis.
Therefore, the inventors modified the chromoatographic conditions such that 4% acetonitrile was run for 7 minutes and then a gradient of 4% to 70% acetonitrile was used from 7 to 20 minutes.

Series [3] can be described thus: Tolerability of Mesna in ESRD hemodialysis patients. It counts as in vivo, human. How it is done:
as §1, with “Plasma and ultrafiltrate were stored at −20° C. until analysis.” left out

Another series relates to plasma tHcy and cysteine. Briefly: Single dose pilot study, 5 maintenance hemodialysis patients: plasma and dialysate tHcy and cysteine. It counts as in vivo, human. The protocol:
Blood samples were drawn at selected intervals during a mid-week dialysis session during which no Mesna was given. One week later, subjects received a single, 5 mg/kg, pre-dialysis, intravenous dose of Mesna and blood samples were drawn throughout the dialysis session. Dialysate samples were also collected from 2 patients. […] A pre-dialysis plasma sample was also drawn before the next dialysis session 2 days later.

For series [4] the following is noted: human, in vivo. The protocol:
To evaluate the in vivo effect of Mesna on plasma tHcy, 5 maintenance hemodialysis patients were recruited to participate in a single dose pilot study. Blood samples were drawn at selected intervals during a mid-week dialysis session during which no Mesna was given. One week later, subjects received a single, 5 mg/kg, pre-dialysis, intravenous dose of Mesna and blood samples were drawn throughout the dialysis session. Dialysate samples were also collected from 2 patients. Total Hcy and cysteine were measured in plasma and dialysate by the modified method of Jacobsen et al.^20 Mesna caused a profound, rapid decrease in plasma tHcy and cysteine (see FIG. 11 and 12). […] A pre-dialysis plasma sample was also drawn before the next dialysis session 2 days later. Plasma tHcy was 2.3 μM lower with Mesna than control (P=0.047) indicating a residual effect of Mesna on tHcy concentrations.
Concentrations of Mesna were also measured in plasma (n=5) and dialysate (n=2) (see FIG. 13).

Series [5] concerns plasma tHcy, fractional excretion of Hcy. As to the kind of experiment: Oral Mesna, Hcy clearance in 2 subjects with normal kidney function. Type of series: in vivo, human. How it is done: The effect of oral Mesna on Hcy clearance was also evaluated in 2 subjects with normal kidney function. The subjects fluid loaded by consuming 2 L of water the morning of the study day. An indwelling catheter was inserted into an appropriate arm vein. At the beginning of the study subjects were asked to void urine and 2×5 mL blood samples were drawn for analysis of tHcy and creatinine. Subsequent blood samples were drawn at 0.5, 1.0 and 1.5 hours for determination of baseline tHcy and creatinine. At these times subjects were also asked to void urine for measurement of urinary tHcy, creatinine and urine volume. Subjects were then given a 10 mg/kg oral dose of Mesna. One hour after the dose, subjects were asked to void their urine and 2×5 mL blood samples were drawn for determination of tHcy and creatinine. At 1.5, 2.0, and 2.5 hours after Mesna, blood samples were drawn for tHcy and creatinine analysis. Urine was also collected at these times for determination of urinary Hcy, creatinine and urinary volume. A final blood sample was drawn 4 hours after administration of Mesna. Mesna caused a slow, small (1.5 μM) decrease in plasma tHcy concentration in both subjects (see FIG. 14). Mesna was detectable in plasma however, maximum concentration (mean 88.6 μM) was less than the 5 mg/kg administered intravenously to dialysis patients (FIG. 15). The fractional excretion of Hcy ([CLHcy/CLCreat]*100) was assessed in the presence and absence of Mesna (see FIG. 16). In the absence of Mesna the fractional excretion of Hcy was only 0.1%. When Mesna was administered the fractional Hcy excretion raised 60 fold to 6.0%.

The next series addresses albumin bound Hcy (Homo sapiens, UniProt P02768). Conditions: 305 μmol/L Mesna.
The conditions of series [6]: cited from earlier work.
The subject of the next series is plasma Hcy. The conditions noted are these: iv Mesna for 5 days, cancer chemotherapy patients, from 12.3 μmol/L; cited from earlier work.
The next series addresses protein bound Hcy (Homo sapiens, UniProt P02768). Briefly: In vitro thiol exchange assay (free dialyzable Hcy in plasma/serum). The conditions noted are these: for AUC of free Hcy vs time: 300 μM, plasma of healthy subjects, n=6, mean +/-SE.
Another series deals with plasma tHcy. Conditions: oral, 4 weeks of treatment, patients on hemodialysis; cited from earlier work.
For series [7] the following is noted: isolated perfused rat liver; cited from earlier work.
The mark [8] stands for this setting: single 5 mg/kg pre-dialysis iv dose, n=5.

Structures are written as SMILES. Values joined by “and” are separate entries in the source; they are usually repeats but may differ in a detail not shown here. Identical values can stand only once.

protein bound Hcy, sequence (P02768 25-609): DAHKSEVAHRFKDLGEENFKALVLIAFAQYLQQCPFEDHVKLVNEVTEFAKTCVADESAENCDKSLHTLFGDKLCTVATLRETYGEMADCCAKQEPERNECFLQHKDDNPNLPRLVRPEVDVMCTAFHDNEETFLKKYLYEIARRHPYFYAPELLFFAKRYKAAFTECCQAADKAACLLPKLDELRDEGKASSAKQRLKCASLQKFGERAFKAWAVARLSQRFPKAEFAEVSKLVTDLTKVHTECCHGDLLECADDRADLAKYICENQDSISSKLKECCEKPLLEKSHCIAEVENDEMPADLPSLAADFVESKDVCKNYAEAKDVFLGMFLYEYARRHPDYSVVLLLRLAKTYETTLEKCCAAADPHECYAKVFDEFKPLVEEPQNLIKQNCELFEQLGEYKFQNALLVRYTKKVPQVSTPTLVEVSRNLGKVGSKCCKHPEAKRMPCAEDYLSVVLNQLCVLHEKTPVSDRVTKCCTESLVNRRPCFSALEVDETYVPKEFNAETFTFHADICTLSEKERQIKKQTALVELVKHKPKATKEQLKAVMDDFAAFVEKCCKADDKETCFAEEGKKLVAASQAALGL
albumin bound Hcy, sequence (P02768 25-609): as above
Experimental for albumin bound Hcy: Plasma was supplemented with reduced homocysteine (30 μmol/L) and allowed to equilibrate with protein and endogenous thiols for 72 hours. Mesna or diluent (control) was then added to the plasma and incubated at 37° C. for 15 minutes. 1 ml of plasma was pipetted into a micropartition device and centrifuged at 1500×g for 10 minutes. Free (dialyzable) Hcy was then determined in the ultrafiltrate.
30 ml of blood (EDTA) was obtained from a healthy subject with normal renal function. The blood was immediately centrifuged at 1500×g and the plasma was separated. D,L Homocysteine was then added to the plasma to a final concentration of 30 μmol/L. The sample was incubated at 4° C. for 72 hours to allow the homocysteine to covalently bind to protein and other thiols. Mesna was added to 1 ml of plasma to a final concentration of 305 μmol/L. An equal volume of diluent was added to 1 ml of plasma as a control. The plasma (1 ml) was then incubated at 37° C. for 15 minutes after which it was pipetted into an Amicon (Amicon Canada, Oakville, Ontario) type YMT micropartition system for separation of free from protein bound solutes. The micropartition system was centrifuged at 1500 X g for 10 minutes and the ultrafiltrate obtained was stored at −20° C. until analysis.
Total plasma Hcy and other low molecular weight thiols were measured by HPLC-FD after pre-column derivitization as described by Jacobsen et al.^20 Briefly, disulfide bonds were reduced with 1.43 M sodium borohydride. Excess reducing agent was consumed by the addition of 1.2 M HCl after which thiols were derivitized with monobromobimane. Protein was precipitated with 1.5 M perchloric acid and the sample pH was raised to ˜3.5 with a solution of 2M citrate and 10 N NaOH.
Thiol amino acids were separated on a Waters Nova-Pak C18 (150×3.9 mm, 5μ) column. The mobile phase consisted of 4% acetonitrile/25 mM ammonium formate buffer, pH=3.8. Since Mesna is also a low molecular weight thiol it can also be measured as a bimane derivative, although it is very late eluting when the above mentioned chromatographic conditions are used. […]
Experimental for protein bound Hcy: To determine the efficacy of Mesna in vitro a thiol exchange assay was developed. This assay evaluates the ability of thiol-containing drugs to exchange with protein bound Hcy and other thiols yielding a larger free, dialyzable fraction of Hcy. 60 mL of blood was drawn from 6 healthy subjects and plasma was obtained by centrifugation at 1500×g. D,L Homocysteine was then added to each plasma sample to a final concentration of 30 μM. The samples were allowed to equilibrate at 4° C. for 72 hours to allow covalent, disulfide bonding of Hcy to plasma proteins. To conduct each assay, 380 μL of the aforementioned plasma was pipetted into a 1.7 mL polypropylene snap-cap tube. 20 uL of Mesna (diluted in 4 mM ethylenediaminetetraacetic acid disodium salt (EDTA), pH=7) was then added to the sample to final concentrations ranging from 0 μM (EDTA vehicle) to 10 000 μM. The sample was incubated for 30 minutes at 37° C. 50 μL aliquots were removed at 0, 2, 5, 10, 15 and 30 at which time plasma proteins were precipitated with 25 μL of 15% sulphosalicylic acid. […] Results for each concentration of Mesna are mean +/−SE, n=6.
Numerous compounds that may modulate protein binding and thiol exchange accumulate in the serum of patients with end-stage renal disease (ESRD). To verify that none of these compounds alter Mesna's exchange with protein bound Hcy, a single concentration of Mesna (300 μM) was tested in a thiol exchange assay (described in Example 4) in serum from patients with ESRD or healthy controls.
The in vitro thiol exchange potential of Mesna was compared with another thiol-containing drug, n-acetylcysteine (NAC) by the thiol exchange assay described in Example 4. 300 μM NAC was compared with 150 and 300 μM Mesna in the plasma of healthy subjects.

In the case of `O=S(=O)(O)CCS.[Na]` [Mesna, sodium 2-mercaptoethane sulfonic acid], the “effect on post-dialysis cysteine” value in series [1] (5 mg/kg iv, 3 patients, p=0.009) is on record as “significant decrease”. Besides, in series [1] (5 mg/kg iv, 3 patients, p=0.035), the “effect on post-dialysis tHcy” value is “significant decrease”. Further, the “pre-dialysis plasma Hcy at second cycle after Mesna” value in series [1] (day 12, all patients) is reported as “returned to baseline”. In addition, the “time to decrease of total plasma homocysteine after administration” value in series [1] (intravenous Mesna, human subjects) is at most 30 min. Further, the figures for the “decrease in pre-dialysis plasma tHcy, day 9 vs day 7” value in series [1] (patient 1), in [1] (patient 2) and in [1] (patient 3) were 3.7 µmol/L, 1.1 µmol/L and 3.1 µmol/L, respectively. In addition, in [1] (single iv 5 mg/kg Mesna, 3 ESRD patients), the “post-dialysis tHcy concentration” value was determined as 10.1 µmol/L. In series [1] (single iv 5 mg/kg dose during dialysis), the “additional decrease of total plasma Hcy compared to dialysis alone” value worked out at 29%. For the same molecule, the “UF Hcy following Mesna treatment” value in series [1] (undiluted ultrafiltrate, 2 patients) was “No increase”. In series [2] (human, plasma, intravenous, 5 mg/kg, end of the study period (day 14)), the concentration at 14 study day was determined as 13.4 µM. Moreover, the concentration at 4 min in [2] (human, plasma, shortly after administration, 5 mg/kg iv, 3 patients) came out at 296 µM. The “plasma Mesna concentration” value in series [2] (post-dialysis, 5 mg/kg iv, 3 patients) was 89.7 ± 32.5 µmol/L; in series [2] (second patient, ~3.5 hours after administration, at onset of nausea), about 60 µmol/L. Moreover, the “tolerability, side effect” value in series [3] (5 mg/kg iv, two of 3 patients) is given as “mild nausea”. In addition, the “dialysate Hcy with Mesna compared to control” value in the series with plasma tHcy and cysteine (n=2) was “slight increase”. Also, in the series on plasma tHcy and cysteine (next dialysis session 2 days later, P=0.047), the “pre-dialysis plasma tHcy lower with Mesna than control” value amounted to 2.3 µM. Moreover, the post-dialysis plasma cysteine in the series on plasma tHcy and cysteine (setting [8]) amounted to 165.1 ± 7.4 µM. Further, the “post-dialysis plasma tHcy” value in the series with plasma tHcy and cysteine (setting [8]) was 11.6 ± 1.7 µM. Also, the elimination during dialysis result in series [4] is “first order elimination”. In addition, the “rise of fractional Hcy excretion” value in series [5] (10 mg/kg oral dose vs absence of Mesna) was 60 fold. Moreover, the “decrease in plasma tHcy concentration” value in series [5] (10 mg/kg oral dose, 2 subjects with normal kidney function) was found to be 1.5 µM. In [5] (10 mg/kg oral dose, normal kidney function), the “fractional excretion of Hcy ([CLHcy/CLCreat]*100)” value is recorded as 6.0%. In addition, the “free Hcy as % of the total plasma Hcy” value at albumin bound Hcy (15 minute incubation) is 27.2% and 27%. In addition, the “Hcy in the free dialyzable form (ultrafiltrate)” value at albumin bound Hcy (15 minute incubation at 37° C., plasma spiked with 30 μmol/L Hcy) was 8.2 µmol/L. For the same molecule, the “pKa of the thiol” value in [6] is 9.1. For the same molecule, in the series with plasma Hcy, the “plasma Hcy after Mesna” value is 1.4 µmol/L. Moreover, the “effect on fraction of free dialyzable Hcy” value on protein bound Hcy (0 to 10 000 μM Mesna, plasma spiked 30 μM Hcy, n=6) is on record as “concentration dependent increase”. Also, the “AUC of thiol exchange, ESRD serum vs. healthy controls” value on protein bound Hcy (300 μM Mesna, P>0.05) is recorded as “no significant difference”. Also, the “AUC of free Hcy vs time” value at protein bound Hcy is 1023+/−86.0. The “time to maximal thiol exchange after Mesna addition” value on protein bound Hcy (further in vitro studies with plasma) was at most 2 min.
For the molecule `CC(=O)N[C@@H](CS)C(=O)O` [NAC, n-acetylcysteine], the “effect on pre-dialysis plasma tHcy” value in the series on plasma tHcy is recorded as “small, non-significant decrease”. Besides, the “AUC of free Hcy vs time” value at protein bound Hcy is 642+/−49.7.
For the molecule `N[C@@H](CS)C(=O)O` [cysteine], in [6], the “pKa of the thiol” value is 8.15.
For the molecule `O=S(=O)([O-])CCSSCCS(=O)(=O)[O-].[Na+].[Na+]` [diMesna, Mesna disulfide], in series [7], the metabolic reduction entry is on record as “reduce diMesna to Mesna”.
Regarding `CN(C)CCOC(c1ccccc1)c1ccccc1.Cn1c(=O)c2[nH]c(Cl)nc2n(C)c1=O` [dimenhydrinate], the “time to reversal of nausea symptoms” value in series [3] (administration of dimenhydrinate to patients with Mesna-associated nausea) is at most 1 min.
Take `N[C@@H](CCS)C(=O)O` [homocysteine]: in series [6], the “pKa of the thiol” value was 8.7.
